Reference: ChEMBL document CHEMBL4330134, “Design, synthesis, and bioevaluation of a novel class of (E)-4-oxo-crotonamide derivatives as potent antituberculosis agents” (Bioorg Med Chem Lett, 2019)
In brackets after ≈: the same amount, converted by molar mass.

Assays:
[1] = tested on: Mycobacterium tuberculosis; assay: Antimycobacterial activity against Mycobacterium tuberculosis H37Rv ATCC 27294 after 4 days by microplate Alamar blue assay; type: functional; settings: H37Rv ATCC 27294, 96 h
[2] = tested on: Mycobacterium tuberculosis; assay: Antimycobacterial activity against Mycobacterium tuberculosis isolate 19809 after 4 days by microplate Alamar blue assay; type: functional; settings: isolate 19809, 96 h
[3] = tested on: Mycobacterium tuberculosis; assay: Antimycobacterial activity against Mycobacterium tuberculosis isolate 19852 after 4 days by microplate Alamar blue assay; type: functional; settings: isolate 19852, 96 h
[4] = tested on: Mycobacterium tuberculosis; assay: Antimycobacterial activity against Mycobacterium tuberculosis isolate 19874 after 4 days by microplate Alamar blue assay; type: functional; settings: isolate 19874, 96 h
[5] = tested on: Mycobacterium tuberculosis; assay: Antimycobacterial activity against Mycobacterium tuberculosis isolate 19769 after 4 days by microplate Alamar blue assay; type: functional; settings: isolate 19769, 96 h
[6] = tested on: Mycobacterium tuberculosis; assay: Antimycobacterial activity against Mycobacterium tuberculosis isolate 19675 after 4 days by microplate Alamar blue assay; type: functional; settings: isolate 19675, 96 h
[7] = tested on: Mycobacterium tuberculosis; assay: Antimycobacterial activity against Mycobacterium tuberculosis isolate 19863 after 4 days by microplate Alamar blue assay; type: functional; settings: isolate 19863, 96 h
[8] = tested on: Mycobacterium tuberculosis; assay: Antimycobacterial activity against Mycobacterium tuberculosis isolate 19805 after 4 days by microplate Alamar blue assay; type: functional; settings: isolate 19805, 96 h
[9] = tested on: Mycobacterium tuberculosis; assay: Antimycobacterial activity against Mycobacterium tuberculosis isolate 19806 after 4 days by microplate Alamar blue assay; type: functional; settings: isolate 19806, 96 h
[10] = tested on: Mycobacterium tuberculosis; assay: Antimycobacterial activity against Mycobacterium tuberculosis isolate 19810 after 4 days by microplate Alamar blue assay; type: functional; settings: isolate 19810, 96 h
[11] = tested on: Mycobacterium tuberculosis; assay: Antimycobacterial activity against Mycobacterium tuberculosis isolate 11168 after 4 days by microplate Alamar blue assay; type: functional; settings: isolate 11168, 96 h
[12] = tested on: Mycobacterium tuberculosis; assay: Antimycobacterial activity against Mycobacterium tuberculosis H37Rv ATCC 27294; type: functional
[13] = Toxicity in po dosed BALB/c mouse; type: organism-based; settings: in vivo

Row | SMILES | MIC [1] | other results
1 | CN(C)C(=O)/C=C/C(=O)c1ccc(-c2ccccc2)cc1 | 0.125 µg/mL (≈ 0.447 µM) | MIC [2]: 0.48 µg/mL (≈ 1.72 µM); MIC [3]: 0.19 µg/mL (≈ 0.68 µM); MIC [4]: 0.23 µg/mL (≈ 0.823 µM); MIC [5]: 0.43 µg/mL (≈ 1.54 µM); MIC [6]: 0.45 µg/mL (≈ 1.61 µM); MIC [7]: 0.23 µg/mL (≈ 0.823 µM); MIC [8]: 0.25 µg/mL (≈ 0.895 µM); MIC [9]: 0.23 µg/mL (≈ 0.823 µM); MIC [10]: 0.12 µg/mL (≈ 0.43 µM); MIC [11]: 0.05 µg/mL (≈ 0.179 µM)
2 | O=C(O)/C=C/C(=O)c1ccc(Cl)cc1Cl | > 4 µg/mL | –
3 | O=C(O)/C=C/C(=O)c1ccc(Oc2ccccc2)cc1 | > 4 µg/mL | –
4 | COC(=O)/C=C/C(=O)C1CCCCC1 | 1.2 µg/mL (≈ 6.11 µM) | –
5 | CCOC(=O)/C=C/C(=O)c1ccc(Br)cc1 | 0.52 µg/mL (≈ 1.84 µM) | –
6 | CCCN(CCC)C(=O)/C=C/C(=O)c1ccccc1F | 0.94 µg/mL (≈ 3.39 µM) | –
7 | CCN(C)C(=O)/C=C/C(=O)c1cccc([N+](=O)[O-])c1 | > 2 µg/mL | –
8 | CC(C)OC(=O)/C=C/C(=O)c1ccc(Br)cc1 | 0.41 µg/mL (≈ 1.38 µM) | –
9 | CCOc1ccc(C(=O)/C=C/C(=O)N(C)CC)cc1 | 0.48 µg/mL (≈ 1.84 µM) | –
10 | CN(C)C(=O)/C=C/C(=O)c1cccc(C(F)(F)F)c1 | 1.95 µg/mL (≈ 7.19 µM) | –
11 | CN(C)C(=O)/C=C/C(=O)c1ccccc1[N+](=O)[O-] | 1.51 µg/mL (≈ 6.08 µM) | –
12 | CN(C)C(=O)/C=C/C(=O)c1ccc(Cl)cc1 | 0.38 µg/mL (≈ 1.6 µM) | –
13 | COc1ccc(C(=O)/C=C/C(=O)OCCNC(=O)OC(C)(C)C)cc1OC | > 4 µg/mL | –
14 | CCCN(CCC)C(=O)/C=C/C(=O)c1ccc(Cl)cc1Cl | > 2 µg/mL | –
15 | CN(C)C(=O)/C=C/C(=O)c1ccc(Br)cc1 | 0.25 µg/mL (≈ 0.886 µM) | –
16 | CCCN(CCC)C(=O)/C=C/C(=O)c1cccc(OC)c1 | > 2 µg/mL | –
17 | COC(=O)/C=C/C(=O)c1ccc(Cl)cc1Cl | 1.85 µg/mL (≈ 7.14 µM) | –
18 | CCCN(CCC)C(=O)/C=C/C(=O)c1ccc2c(c1)OCO2 | > 2 µg/mL | –
19 | Cc1ccc(C(=O)/C=C/C(=O)O)cc1 | > 4 µg/mL | –
20 | CC(C)(C)OC(=O)NCCOC(=O)/C=C/C(=O)c1ccc(Cl)cc1Cl | > 4 µg/mL | –
21 | COc1cccc(C(=O)/C=C/C(=O)O)c1 | > 4 µg/mL | –
22 | COC(=O)/C=C/C(=O)c1ccc(OC)cc1 | 0.25 µg/mL (≈ 1.14 µM) | MIC [12]: 0.25 µg/mL (≈ 1.14 µM); LD50 [13]: 568 mg/kg
23 | CCN(C)C(=O)/C=C/C(=O)c1cccc(Br)c1 | 1.52 µg/mL (≈ 5.13 µM) | –
24 | CC(C)OC(=O)/C=C/C(=O)c1ccco1 | 0.65 µg/mL (≈ 3.12 µM) | –
25 | Cc1ccc(C(=O)/C=C/C(=O)OCCNC(=O)OC(C)(C)C)cc1 | > 4 µg/mL | –
26 | COC(=O)/C=C/C(=O)c1ccco1 | 0.52 µg/mL (≈ 2.89 µM) | –
27 | CCOC(=O)/C=C/C(=O)c1cc(OC)ccc1OC | 1.05 µg/mL (≈ 3.97 µM) | –
28 | COc1cccc(C(=O)/C=C/C(=O)N(C)C)c1 | 1.62 µg/mL (≈ 6.94 µM) | –
29 | CN(C)C(=O)/C=C/C(=O)c1ccccc1Cl | 0.84 µg/mL (≈ 3.53 µM) | –
